PMC12040169 (PLOS Biology, 2025)

Assay: in vitro
Conditions: human, hela cells, % viability

Going from `Cn1ncc2c(=O)n(Cc3nnsc3Cl)cnc21` [CBK237374] to `CC(=O)N1CCCN(C(=O)Cn2cnc3ccc(F)cc3c2=O)CC1` [CBK245206], the viability at 28.5 h, 10 µM rises from 102% to 106%.

First: Cc1nc(-c2ccc(CNC(=O)c3cc(=O)[nH]c4ccccc34)o2)cs1 [CBK238261]
Second: COC(=O)c1cc(-c2c[nH]c3ccccc23)[nH]n1 [CBK241010]
The viability at 28.5 h, 10 µM of the first is lower: 79.2% for the first, 92.5% for the second.

First: O=C(c1ccco1)N1CCN(CC(=O)N2c3ccccc3OCC2c2ccccc2)CC1 (stereo not drawn) [CBK239722]
Second: c1ccc(CN2CCN(Cc3ccccc3)C2c2ccco2)cc1 [CBK260888]
The viability at 28.5 h, 10 µM of the first is lower: 89.9% for the first, 99.6% for the second.

First: CSCc1nnc(SCCC(=O)N2CCN(c3ccc(F)cc3)CC2)o1 [CBK240463]
Second: COc1ccc(CN2CCCN(C(=O)c3ccc(F)cc3Br)CC2)cc1 [CBK251752]
The viability at 28.5 h, 10 µM of the first is higher: 93.2% for the first, 88.1% for the second.

Compared with `CC(c1ccc(Cl)cc1Cl)N(C)C(=O)c1ccc(S(C)(=O)=O)cc1` (stereo not drawn) [CBK242418], `CS(=O)(=O)c1ccc(C(=O)Nc2nccs2)cc1` [CBK255213] is lower in viability at 28.5 h, 10 µM: 113% for the first, 98.3% for the second.

Going from `CCOc1ncccc1NC(=O)C(C)n1cccn1` (stereo not drawn) [CBK245377] to `CN(Cc1cnn(C)c1)C(=O)c1cc(O)nc2ccccc12` [CBK251706], the viability at 28.5 h, 10 µM rises from 105% to 106%.

Going from `COCCN1CC2=C(C1=O)C(c1ccc(F)cc1)NC(=O)N2` (stereo not drawn) [CBK249447] to `COc1ccc(CN(C(=O)c2cccc(-n3cnnn3)c2)C2CC2)cc1` [CBK256997], the viability at 28.5 h, 10 µM rises from 81.9% to 91.6%.

Going from `Cc1nn(C)c(C)c1CC(=O)Nc1nc(C(C)(C)C)cs1` [CBK250992] to `CC(C)(C)c1cc(C(=O)O)[nH]n1` [CBK260874], the viability at 28.5 h, 10 µM falls from 105% to 103%.

Compared with `CC(=O)Nc1ccc(CNC(=O)c2ccc(C(F)(F)F)cn2)cc1` [CBK252121], `CC(=O)Nc1ccc(Nc2ccc([N+](=O)[O-])cc2[N+](=O)[O-])cc1` [CBK260886] is lower in viability at 28.5 h, 10 µM: 92% for the first, 84.6% for the second.

Compared with `O=C(NCCNc1cnccn1)c1cc(Br)ccc1F` [CBK253480], `Cc1cc(NC(=O)CN(C)CC(=O)Nc2ccc(Br)cc2C)no1` [CBK260700] is lower in viability at 28.5 h, 10 µM: 110% for the first, 92.9% for the second.

Going from `Cc1ccc(C(=O)N2CCC(c3nc4ccccc4s3)CC2)cc1NS(C)(=O)=O` [CBK254629] to `CC/C(=C/c1sc2ccc3ccccc3c2[n+]1CCCS(=O)(=O)[O-])SC` [CBK260901], the viability at 28.5 h, 10 µM rises from 89.2% to 104%.

Going from `COCC(=O)Nc1ccc(N2CCCC2=O)c(Cl)c1` [CBK256871] to `O=C(CCSS(=O)(=O)O)N1CCc2ccccc21` [CBK260892N], the viability at 28.5 h, 10 µM falls from 106% to 94.4%.

Compared with `C/C(=N/OCO/N=C(\C)c1cccc([N+](=O)[O-])c1)c1cccc([N+](=O)[O-])c1` [CBK260872], `CCC(C)c1cc([N+](=O)[O-])cc([N+](=O)[O-])c1OC(=O)OC(C)C` (stereo not drawn) [CBK260882] is higher in viability at 28.5 h, 10 µM: 89% for the first, 99.2% for the second.

First: NC(CCC(=O)O)C(=O)O (stereo not drawn) [CBK260875C]
Second: O=C(O)C(=C/C=C/Br)C(=O)O [CBK260906]
The viability at 28.5 h, 10 µM of the first is higher: 97.3% for the first, 92.6% for the second.

Going from `O=C(NNc1ccccc1)c1c(O)c2ccccc2oc1=O` [CBK260878] to `O=C(O)CC[n+]1c(/C=C/Nc2ccccc2)oc2ccccc21` [CBK260898B], the viability at 28.5 h, 10 µM rises from 75.1% to 93.3%.

First: CC(C)(C)S(=O)(=O)c1ccc(C(=O)O)s1 [CBK260880]
Second: COc1ccc(C2NC(C(=O)O)CS2)c(OC)c1 (stereo not drawn) [CBK260908]
The viability at 28.5 h, 10 µM of the first is lower: 91.4% for the first, 99.2% for the second.

Going from `O=C(C[n+]1ccc(CCSCc2ccc3c4c(cccc24)CC3)cc1)c1ccc2c3c(cccc13)CC2` [CBK260881B] to `C(=N\c1ccc(Cc2ccc(/N=C/c3cccnc3)cc2)cc1)/c1cccnc1` [CBK260884], the viability at 28.5 h, 10 µM falls from 96.4% to 95%.

Compared with `Cc1ccc(C2N(Cc3ccccc3)CCN2Cc2ccccc2)o1` [CBK260883], `c1ccc(CN2CCN(Cc3ccccc3)C2c2cccnc2)cc1` [CBK260885] is lower in viability at 28.5 h, 10 µM: 98.3% for the first, 93.2% for the second.

Going from `O=C(O)CCC(=O)Nc1cccc2ccccc12` [CBK260889] to `O=C(O)CN(Cc1ccccc1)Cc1ccccc1` [CBK260903], the viability at 28.5 h, 10 µM falls from 112% to 104%.

Going from `CC(C)(C)C1CCC(OC(=O)CCC(=O)Nc2nccs2)CC1` (stereo not drawn) [CBK260890] to `O=C(O)C1CSC(c2ccc([N+](=O)[O-])cc2)N1` (stereo not drawn) [CBK260909], the viability at 28.5 h, 10 µM rises from 96.9% to 103%.

First: COc1cc([N+](=O)[O-])c2[nH]c(C(=O)O)c(CCNC(C)=O)c2c1 [CBK260895]
Second: O=C(O)C(Cc1ccccc1)N1C(=O)c2ccccc2C1=O (stereo not drawn) [CBK260904]
The viability at 28.5 h, 10 µM of the first is higher: 105% for the first, 97.6% for the second.

Going from `OCC(O)CN1CCc2ccccc21` (stereo not drawn) [CBK260896] to `COc1ccc(N2C(=O)CC(N3CCN(C4CC(=O)N(c5ccc(OC)cc5)C4=O)CC3)C2=O)cc1` (stereo not drawn) [CBK260907], the viability at 28.5 h, 10 µM falls from 101% to 88.2%.

Same assay, conditions: human, hela cells, % viability, bulk resorufin, single well

With `O=C1NC(=O)C(=Cc2ccc(-c3ccc([N+](=O)[O-])cc3)o2)C(=O)N1` [CBK229904] the viability at 28.5 h, 10 µM was 114%.
